{"source": "ChEMBL document CHEMBL3885881", "about": "“DrugMatrix”", "species_on_record": "Rattus norvegicus", "experiment": "DrugMatrix - Regimen: Daily Repeat", "type": "toxicity, organism-based, Sprague-Dawley", "design": "regimen Daily Repeat, gender Male, age 6-8 weeks", "settings": "in vivo, po, 56 mg/kg, route oral GAVAGE, […]", "key": {"[1]": {"settings": "72 h, tissue Plasma, dose level Low, time 3 day"}, "[2]": {"settings": "120 h, tissue Blood, dose level High, time 5 day"}, "[3]": {"settings": "120 h, tissue Blood, dose level Low, time 5 day"}, "[4]": {"settings": "120 h, tissue Plasma, dose level High, time 5 day"}, "[5]": {"settings": "120 h, tissue Plasma, dose level Low, time 5 day"}, "[6]": {"settings": "tissue Blood, dose level High, time 28 day"}, "[7]": {"settings": "tissue Plasma, dose level High, time 28 day"}}}
{"smiles": "NC[C@@H]1O[C@H](O[C@H]2[C@@H](O)[C@H](O[C@@H]3[C@@H](O)[C@H](N)C[C@H](N)[C@H]3O[C@H]3O[C@H](CN)[C@@H](O)[C@H](O)[C@H]3N)O[C@@H]2CO)[C@H](N)[C@@H](O)[C@@H]1O", "note": "[FRAMYCETIN]", "values": [{"measurement": "CREATININE", "setting": "[1]", "result": 0.19, "unit": "mg/dL"}, {"measurement": "GLUCOSE", "setting": "[1]", "result": 156.33, "unit": "mg/dL"}, {"measurement": "LACTATE DEHYDROGENASE", "setting": "[1]", "result": 107.33, "unit": "u/L"}, {"measurement": "LIPASE", "setting": "[1]", "result": 10.33, "unit": "u/L"}, {"measurement": "PHOSPHORUS", "setting": "[1]", "result": 10.8, "unit": "mg/dL"}, {"measurement": "POTASSIUM", "setting": "[1]", "result": 5.83, "unit": "MEQ/L"}, {"measurement": "SODIUM", "setting": "[1]", "result": 143.17, "unit": "MEQ/L"}, {"measurement": "TOTAL BILIRUBIN", "setting": "[1]", "result": 0.1, "unit": "mg/dL"}, {"measurement": "TOTAL PROTEIN", "setting": "[1]", "result": 5.97, "unit": "G/DL"}, {"measurement": "URIC ACID", "setting": "[1]", "result": 0.4, "unit": "mg/dL"}, {"measurement": "BASOPHIL", "setting": "[2]", "result": 0.36, "unit": "%"}, {"measurement": "EOSINOPHIL", "setting": "[2]", "result": 0.6, "unit": "%"}, {"measurement": "ERYTHROCYTE COUNT", "setting": "[2]", "result": 7.45, "unit": "x10E6/uL"}, {"measurement": "HEMATOCRIT", "setting": "[2]", "result": 49.44, "unit": "%"}, {"measurement": "HEMOGLOBIN", "setting": "[2]", "result": 15.6, "unit": "G/DL"}, {"measurement": "LEUKOCYTE COUNT", "setting": "[2]", "result": 6.84, "unit": "x10E3/uL"}, {"measurement": "LYMPHOCYTE", "setting": "[2]", "result": 82.08, "unit": "%"}, {"measurement": "MEAN CORPUSCULAR HEMOGLOBIN", "setting": "[2]", "result": 20.94, "unit": "pg"}, {"measurement": "MEAN CORPUSCULAR HEMOGLOBIN CONCENTRATION", "setting": "[2]", "result": 31.58, "unit": "G/DL"}, {"measurement": "MEAN CORPUSCULAR VOLUME", "setting": "[2]", "result": 66.34, "unit": "fL"}, {"measurement": "MONOCYTE", "setting": "[2]", "result": 1.68, "unit": "%"}, {"measurement": "NEUTROPHIL", "setting": "[2]", "result": 14.3, "unit": "%"}, {"measurement": "PLATELET COUNT", "setting": "[2]", "result": 1274.6, "unit": "x10E3/uL"}, {"measurement": "ABSOLUTE BASOPHIL", "setting": "[3]", "result": 0, "unit": "CELLS/uL"}, {"measurement": "ABSOLUTE EOSINOPHIL", "setting": "[3]", "result": 0, "unit": "CELLS/uL"}, {"measurement": "ABSOLUTE LYMPHOCYTE", "setting": "[3]", "result": 7805, "unit": "CELLS/uL"}, {"measurement": "ABSOLUTE MONOCYTE", "setting": "[3]", "result": 76.67, "unit": "CELLS/uL"}, {"measurement": "ABSOLUTE SEGMENTED NEUTROPHIL", "setting": "[3]", "result": 785, "unit": "CELLS/uL"}, {"measurement": "BASOPHIL", "setting": "[3]", "result": 0, "unit": "%"}, {"measurement": "EOSINOPHIL", "setting": "[3]", "result": 0, "unit": "%"}, {"measurement": "ERYTHROCYTE COUNT", "setting": "[3]", "result": 5.67, "unit": "x10E6/uL"}, {"measurement": "HEMATOCRIT", "setting": "[3]", "result": 34.13, "unit": "%"}, {"measurement": "HEMOGLOBIN", "setting": "[3]", "result": 13.3, "unit": "G/DL"}, {"measurement": "LEUKOCYTE COUNT", "setting": "[3]", "result": 8.67, "unit": "x10E3/uL"}, {"measurement": "LYMPHOCYTE", "setting": "[3]", "result": 89.33, "unit": "%"}, {"measurement": "MEAN CORPUSCULAR HEMOGLOBIN", "setting": "[3]", "result": 23.47, "unit": "pg"}, {"measurement": "MEAN CORPUSCULAR HEMOGLOBIN CONCENTRATION", "setting": "[3]", "result": 38.97, "unit": "G/DL"}, {"measurement": "MEAN CORPUSCULAR VOLUME", "setting": "[3]", "result": 60.2, "unit": "fL"}, {"measurement": "MONOCYTE", "setting": "[3]", "result": 1, "unit": "%"}, {"measurement": "NEUTROPHIL", "setting": "[3]", "result": 9.67, "unit": "%"}, {"measurement": "NUCLEATED RED BLOOD CELLS", "setting": "[3]", "result": "0 /100WBC"}, {"measurement": "PLATELET COUNT", "setting": "[3]", "result": 1077, "unit": "x10E3/uL"}, {"measurement": "ALANINE AMINOTRANSFERASE", "setting": "[4]", "result": 29, "unit": "u/L"}, {"measurement": "ALBUMIN", "setting": "[4]", "result": 3.74, "unit": "G/DL"}, {"measurement": "ALKALINE PHOSPHATASE", "setting": "[4]", "result": 336, "unit": "u/L"}, {"measurement": "ASPARTATE AMINOTRANSFERASE", "setting": "[4]", "result": 73.8, "unit": "u/L"}, {"measurement": "BLOOD UREA NITROGEN", "setting": "[4]", "result": 6.6, "unit": "mg/dL"}, {"measurement": "CHLORIDE", "setting": "[4]", "result": 109.6, "unit": "MEQ/L"}, {"measurement": "CHOLESTEROL", "setting": "[4]", "result": 60.6, "unit": "mg/dL"}, {"measurement": "CREATINE PHOSPHOKINASE", "setting": "[4]", "result": 307, "unit": "u/L"}, {"measurement": "CREATININE", "setting": "[4]", "result": 0.28, "unit": "mg/dL"}, {"measurement": "GLUCOSE", "setting": "[4]", "result": 128.6, "unit": "mg/dL"}, {"measurement": "PHOSPHORUS", "setting": "[4]", "result": 13.88, "unit": "mg/dL"}, {"measurement": "POTASSIUM", "setting": "[4]", "result": 6.96, "unit": "MEQ/L"}, {"measurement": "SODIUM", "setting": "[4]", "result": 151.8, "unit": "MEQ/L"}, {"measurement": "TOTAL BILIRUBIN", "setting": "[4]", "result": 0.16, "unit": "mg/dL"}, {"measurement": "TOTAL PROTEIN", "setting": "[4]", "result": 6.22, "unit": "G/DL"}, {"measurement": "ALANINE AMINOTRANSFERASE", "setting": "[5]", "result": 68.67, "unit": "u/L"}, {"measurement": "ALBUMIN", "setting": "[5]", "result": 4.03, "unit": "G/DL"}, {"measurement": "ALKALINE PHOSPHATASE", "setting": "[5]", "result": 434, "unit": "u/L"}, {"measurement": "ASPARTATE AMINOTRANSFERASE", "setting": "[5]", "result": 94.67, "unit": "u/L"}, {"measurement": "BLOOD UREA NITROGEN", "setting": "[5]", "result": 12, "unit": "mg/dL"}, {"measurement": "CARBON DIOXIDE", "setting": "[5]", "result": 26.33, "unit": "mmol/L"}, {"measurement": "CHLORIDE", "setting": "[5]", "result": 104, "unit": "MEQ/L"}, {"measurement": "CHOLESTEROL", "setting": "[5]", "result": 74.67, "unit": "mg/dL"}, {"measurement": "CREATINE PHOSPHOKINASE", "setting": "[5]", "result": 481.67, "unit": "u/L"}, {"measurement": "CREATININE", "setting": "[5]", "result": 0.23, "unit": "mg/dL"}, {"measurement": "GLUCOSE", "setting": "[5]", "result": 156.33, "unit": "mg/dL"}, {"measurement": "LACTATE DEHYDROGENASE", "setting": "[5]", "result": 224, "unit": "u/L"}, {"measurement": "LIPASE", "setting": "[5]", "result": 10.33, "unit": "u/L"}, {"measurement": "PHOSPHORUS", "setting": "[5]", "result": 10.57, "unit": "mg/dL"}, {"measurement": "POTASSIUM", "setting": "[5]", "result": 6.71, "unit": "MEQ/L"}, {"measurement": "SODIUM", "setting": "[5]", "result": 148.83, "unit": "MEQ/L"}, {"measurement": "TOTAL BILIRUBIN", "setting": "[5]", "result": 0.17, "unit": "mg/dL"}, {"measurement": "TOTAL PROTEIN", "setting": "[5]", "result": 6.03, "unit": "G/DL"}, {"measurement": "URIC ACID", "setting": "[5]", "result": 1.13, "unit": "mg/dL"}, {"measurement": "BASOPHIL", "setting": "[6]", "result": 0.48, "unit": "%"}, {"measurement": "EOSINOPHIL", "setting": "[6]", "result": 0.51, "unit": "%"}, {"measurement": "ERYTHROCYTE COUNT", "setting": "[6]", "result": 8.01, "unit": "x10E6/uL"}, {"measurement": "HEMATOCRIT", "setting": "[6]", "result": 48.92, "unit": "%"}, {"measurement": "HEMOGLOBIN", "setting": "[6]", "result": 15.88, "unit": "G/DL"}, {"measurement": "LEUKOCYTE COUNT", "setting": "[6]", "result": 12.82, "unit": "x10E3/uL"}, {"measurement": "LYMPHOCYTE", "setting": "[6]", "result": 83.46, "unit": "%"}, {"measurement": "MEAN CORPUSCULAR HEMOGLOBIN", "setting": "[6]", "result": 19.85, "unit": "pg"}, {"measurement": "MEAN CORPUSCULAR HEMOGLOBIN CONCENTRATION", "setting": "[6]", "result": 32.47, "unit": "G/DL"}, {"measurement": "MEAN CORPUSCULAR VOLUME", "setting": "[6]", "result": 61.12, "unit": "fL"}, {"measurement": "MONOCYTE", "setting": "[6]", "result": 1.54, "unit": "%"}, {"measurement": "NEUTROPHIL", "setting": "[6]", "result": 12.95, "unit": "%"}, {"measurement": "PLATELET COUNT", "setting": "[6]", "result": 1208.1, "unit": "x10E3/uL"}, {"measurement": "ALANINE AMINOTRANSFERASE", "setting": "[7]", "result": 26.9, "unit": "u/L"}, {"measurement": "ALBUMIN", "setting": "[7]", "result": 3.85, "unit": "G/DL"}, {"measurement": "ALKALINE PHOSPHATASE", "setting": "[7]", "result": 200.9, "unit": "u/L"}, {"measurement": "ASPARTATE AMINOTRANSFERASE", "setting": "[7]", "result": 62.4, "unit": "u/L"}, {"measurement": "BLOOD UREA NITROGEN", "setting": "[7]", "result": 11, "unit": "mg/dL"}, {"measurement": "CHLORIDE", "setting": "[7]", "result": 107.1, "unit": "MEQ/L"}, {"measurement": "CHOLESTEROL", "setting": "[7]", "result": 54.5, "unit": "mg/dL"}, {"measurement": "CREATINE PHOSPHOKINASE", "setting": "[7]", "result": 177.2, "unit": "u/L"}, {"measurement": "CREATININE", "setting": "[7]", "result": 0.38, "unit": "mg/dL"}, {"measurement": "GLUCOSE", "setting": "[7]", "result": 135.2, "unit": "mg/dL"}, {"measurement": "PHOSPHORUS", "setting": "[7]", "result": 11.16, "unit": "mg/dL"}, {"measurement": "POTASSIUM", "setting": "[7]", "result": 6.5, "unit": "MEQ/L"}, {"measurement": "SODIUM", "setting": "[7]", "result": 151.5, "unit": "MEQ/L"}, {"measurement": "TOTAL BILIRUBIN", "setting": "[7]", "result": 0.22, "unit": "mg/dL"}, {"measurement": "TOTAL PROTEIN", "setting": "[7]", "result": 6.52, "unit": "G/DL"}]}
